One experiment concerns H. zea. The settings on record: hollow fiber formulation; 12-ha maize field; cited from earlier work.
For the next experiment, the system named is moths. The experiment can be described thus: Brazilian cotton field trial, compared with grower's standard methomyl cover spray (dead moth counts). It counts as in vivo, noctuid moths. To be noted: methomyl alone sprayed over the entire crop, grower's standard rate; for 5 days after the application. As for the experimental part:
Initial work on products of the present disclosure consisted of a blend of oleoresins designed to mimic the attractive volatiles used by adult noctuids to identify sugar-rich sources of floral nectar. This blend also contains a number of sugar-based and proteic phagostimulants (feeding stimulants) to encourage the target insects to feed on the formulation to full engorgement. When a pesticide is added to this product, these components encourage megadose intake of the incorporated killing agent. This minimizes the risk of sub-lethal exposure, a contributing factor to the development of resistance. To further reduce the risk of resistance, the product may be designed as a tank mix to be blended with a small dose of the user's pesticide of choice just prior to application. This characteristic makes the product an extremely adaptable pest management solution and lends itself well to pesticide rotation programs. The product was originally tested in cotton and soybean fields in South America, where noctuid pests pose a significant economic threat to multiple crops. […]

Structures can show the parent of a compound that is named as a salt.

`CCCC/C=C\CCCCCCCCOC=O` [(Z)-9-tetradecenyl formate]: the rate of mating entry with H. zea is on record as “cut in half”.
As to `CNC(=O)ON=C(C)SC` [methomyl], the dead moths recovered result in the experiment with moths is on record as “no or very few dead moths”.

The values are drawn from patent US20240008478A1, “Composition and Methods for Managing and Controlling Lepidopteran Insects” (priority 2022, published 2024).
